Tested on: healthy subjects
Test: Phase 1 healthy volunteer study, single oral dose: treatment-emergent adverse events
Format: in vivo, human
Details: 25 mg
Experimental: A Phase 1 randomized, double-blind, placebo-controlled study to evaluate the effect of psilocybin on cognitive and emotional processing as compared to placebo in healthy volunteers was conducted. The study investigated the short-term (Day 7) and long-term (Day 28) effects of moderate (10 mg) and high doses (25 mg) of psilocybin on key domains of cognition, such as episodic memory, attention, working and spatial memory, social cognition and elements of executive function, including cognitive flexibility.
90 healthy subjects were studied. Approximately 50% of the subjects were psilocybin-naïve. For subjects with prior psilocybin experience, the last exposure was at least 1 year prior to the signing of the Informed Consent Form (ICF). Approximately 50% of the subjects were female. Subjects were stratified by sex and age (18-35 years old; >35 years old).
Each subject was assigned 1 treatment bottle containing 5 capsules packaged in a double-blind fashion, depending on the randomized treatment arm, the bottle contained one of the following: • a. Psilocybin 10 mg: 2×5-mg oral psilocybin capsules plus 3× placebo capsules • b. Psilocybin 25 mg: 5×5-mg oral psilocybin capsules • c. Placebo: 5× placebo capsules
Each 5-mg oral psilocybin capsule comprised 5 mg crystalline psilocybin in the form of Polymorph A, 12.5 mg of SMCC 50, 79.5 mg of SMCC 90, 1 mg sodium starch glycolate, 1 mg colloidal silicon dioxide, and 1 mg sodium stearyl fumarate
Adverse events: Throughout the course of the study, all AEs were monitored and recorded. Each AE was classified according to the following criteria: • i. […] Moderate: The AE produces some impairment of functioning, but is not hazardous to the subject's health. • iii. Severe: The AE produces significant impairment of functioning or incapacitation and is a definite hazard to the subject's health.
Selected Adverse Events of included: • (a) Euphoric mood • (b) Dissociative disorder • (c) Hallucination • (d) Psychotic disorder • (e) Cognitive disorder • (f) Disturbance in attention • (g) Altered mood • (h) Impairment of psychomotor skills • (i) Inappropriate affect • (j) Overdose • (k) Intentional product misuse • (l) Illusion
For example, drug-induced hepatitis that resolved without evidence of hepatic failure would not be considered life threatening even though drug-induced hepatitis can be fatal. • (c) Inpatient hospitalization or prolongation of existing hospitalization. • (d) Persistent or significant disability/incapacity. • (e) Congenital anomaly/birth defect in the offspring of a subject who received psilocybin. • (f) Other: Important medical events that may not result in death, be life-threatening, or require hospitalization, may be considered an SAE when, based upon appropriate medical judgment, they may jeopardize the subject and may require medical or surgical intervention to prevent one of the outcomes listed in this definition. […] Visits:
Visit 3 (V3): Drug Administration (Day 0): The subject was asked to eat a light breakfast at least two hours prior to coming to the clinic for study drug administration. On Day 0 (V3), the subject underwent the SSTS, had vital signs obtained, medications reviewed, AEs recorded and eligibility reviewed prior to being randomized to study drug. The study drug was administered to up to six subjects simultaneously in individual beds separated by a curtain. The subject was invited to put on eyeshades and headphones, lie down and listen to calming music for the rest of the session (six hours). The subject was supported 1:1 with a chaperone and supervised by the study psychiatrist and lead therapist.
Recording of adverse events and prior/concomitant medication was performed at each visit.
During administration of psilocybin, each subject received one on one support from a trained assisting therapist and each dosing session was supervised by a study psychiatrist and a lead therapist. […]

CN(C)CCc1c[nH]c2cccc(OP(=O)(O)O)c12 [psilocybin]
Any severe TEAE: % of subjects: (33.3) % | Any severe TEAE: Events: 29 | Any severe TEAE: N (%): 10 | Emotional disorder, worst severity Mild: Events: 1 | Emotional disorder, worst severity Moderate: Events: 5 | Emotional disorder, worst severity Severe: Events: 0 | Emotional disorder, worst severity Severe: N (%): 0 | Emotional disorder: Events: 6 | Euphoric mood, worst severity Mild: Events: 3 | Euphoric mood, worst severity Mild: N (%): 3 (10.0) | Euphoric mood, worst severity Moderate: Events: 4 | Euphoric mood, worst severity Severe: Events: 0 | Euphoric mood, worst severity Severe: N (%): 0 | Euphoric mood: Events: 8 | Fatigue, worst severity Mild: Events: 3 | Fatigue, worst severity Mild: N (%): 3 (10.0) | Fatigue, worst severity Moderate: Events: 5 | Fatigue, worst severity Severe: Events: 0 | Fatigue, worst severity Severe: N (%): 0 | Fatigue: Events: 8 | Feeling abnormal, worst severity Mild: Events: 0 | Feeling abnormal, worst severity Mild: N (%): 0 | Feeling abnormal, worst severity Moderate: Events: 0 | Feeling abnormal, worst severity Moderate: N (%): 0 | Feeling abnormal, worst severity Severe: Events: 0 | Feeling abnormal, worst severity Severe: N (%): 0 | Feeling abnormal: Events: 0 | Feeling abnormal: N (%): 0 | Feeling of relaxation: Events: 1 | Gastrointestinal disorders, worst severity Mild: Events: 4 | Gastrointestinal disorders, worst severity Moderate: Events: 1 | Gastrointestinal disorders, worst severity Severe: Events: 0 | Gastrointestinal disorders, worst severity Severe: N (%): 0 | Gastrointestinal disorders: Events: 5 | General disorders and administration site conditions, worst severity Mild: Events: 8 | General disorders and administration site conditions, worst severity Moderate: Events: 7 | General disorders and administration site conditions, worst severity Moderate: N (%): 6 (20.0) | General disorders and administration site conditions, worst severity Severe: Events: 1 | General disorders and administration site conditions: Events: 18 | Hallucination, auditory, worst severity Mild: Events: 1 | Hallucination, auditory, worst severity Moderate: Events: 3 | Hallucination, auditory, worst severity Moderate: N (%): 3 (10.0) | Hallucination, auditory, worst severity Severe: Events: 0 | Hallucination, auditory, worst severity Severe: N (%): 0 | Hallucination, auditory: Events: 4 | Hallucination, tactile: Events: 4 | Hallucination, visual, worst severity Mild: Events: 3 | Hallucination, visual, worst severity Mild: N (%): 3 (10.0) | Hallucination, visual, worst severity Moderate: Events: 13 | Hallucination, visual, worst severity Severe: Events: 5 | Hallucination, visual: Events: 22 | Hallucination, worst severity Mild: Events: 0 | Hallucination, worst severity Mild: N (%): 0 | Hallucination, worst severity Moderate: Events: 2 | Hallucination, worst severity Severe: Events: 0 | Hallucination, worst severity Severe: N (%): 0 | Hallucination: Events: 2 | Headache, worst severity Mild: Events: 10 | Headache, worst severity Moderate: Events: 5 | Headache, worst severity Severe: Events: 0 | Headache, worst severity Severe: N (%): 0 | Headache: Events: 16 | Hypoaesthesia, worst severity Mild: Events: 4 | Hypoaesthesia, worst severity Mild: N (%): 3 (10.0) | Hypoaesthesia, worst severity Moderate: Events: 0 | Hypoaesthesia, worst severity Moderate: N (%): 0 | Hypoaesthesia, worst severity Severe: Events: 0 | Hypoaesthesia, worst severity Severe: N (%): 0 | Hypoaesthesia: Events: 4 | Hypoaesthesia: N (%): 3 (10.0) | Illusion, worst severity Mild: Events: 4 | Illusion, worst severity Mild: N (%): 3 (10.0) | Illusion, worst severity Moderate: Events: 12 | Illusion, worst severity Severe: Events: 7 | Illusion: Events: 26 | Infections and infestations, worst severity Mild: Events: 4 | Infections and infestations, worst severity Moderate: Events: 0 | Infections and infestations, worst severity Moderate: N (%): 0 | Infections and infestations, worst severity Severe: Events: 0 | Infections and infestations, worst severity Severe: N (%): 0 | Infections and infestations: Events: 4 | Investigations, worst severity Mild: Events: 1 | Investigations, worst severity Moderate: Events: 0 | Investigations, worst severity Moderate: N (%): 0 | Investigations, worst severity Severe: Events: 0 | Investigations, worst severity Severe: N (%): 0 | Investigations: Events: 1 | Mental fatigue: Events: 3 | Mental fatigue: N (%): 3 (10.0) | Mood altered, worst severity Mild: Events: 3 | Mood altered, worst severity Moderate: Events: 7 | Mood altered, worst severity Moderate: N (%): 6 (20.0) | Mood altered, worst severity Severe: Events: 9 | Mood altered: Events: 25 | Musculoskeletal and connective tissue disorders, worst severity Mild: Events: 3 | Musculoskeletal and connective tissue disorders, worst severity Moderate: Events: 1 | Musculoskeletal and connective tissue disorders, worst severity Severe: Events: 0 | Musculoskeletal and connective tissue disorders, worst severity Severe: N (%): 0 | Musculoskeletal and connective tissue disorders: Events: 4 | Musculoskeletal and connective tissue disorders: N (%): 3 (10.0) | Nausea: Events: 3 | Nausea: N (%): 3 (10.0) | Nervous system disorders, worst severity Mild: Events: 24

Reference: US11865126B2, “Method for treating anxiety disorders, headache disorders, and eating disorders with psilocybin” (priority 2019, dated 2024)
